Measurements from patent US20060063810A1, “Combination treatment for impaired motor function in parkinson's disease” (priority 2003, published 2006).

What was measured:
[1] = tested on: parkinsonian patients; settings: in vivo; cited from earlier work
[2] = tested on: single Parkinson's patient; settings: citalopram added to the anti-Parkinson's drug regime of a single patient; cited from earlier work
[3] = tested on: patients suffering from different types of tremors; settings: human, in vivo; cited from earlier work
[4] = tested on: dyskinesia; settings: normal therapeutic (anti-anxiolytic) levels; cited from earlier work
[5] = tested on: Parkinson's disease; settings: in vivo; cited from earlier work
[6] = tested on: HD patients; settings: cited from earlier work
[7] = tested on: Parkinson Disease patients suffering from severe bradykinesia and motor fluctuations (dyskinesias) induced by L-Dopa therapy; assay: Double-blind, randomized, placebo-controlled clinical study of AMN lead-in followed by add-on CIT (Example 9, Method B); type: in vivo, human; settings: patients 1, 2 and 4; first four visits; three weeks of treatment with amantadine only
Protocol: The study is conducted in a double-blind, randomized, placebo-controlled, parallel-group design, with 2 treatment phases: 3 weeks open label, up -titration amantadine lead-in phase, follow by a 6 weeks add-on citalopram phase; performed in Parkinson Disease patients suffering from severe bradykinesia and motor fluctuations—dyskinesias—induced by L-Dopa therapy.
Amantadine Hydrochloride: 50 mg arnantadine hydrochloride is administered as a b.i.d. regimen during 1 week. Up titration to 100 mg amantadine hydrochloride administered as a b.i.d. regimen during the second week. Up titration to 150 mg amantadine hydrochloride administered as a b.i.d. regimen during the third week. […]
The total score for UPDRS subscale IV is employed to evaluate the severity and characteristics of L-Dopa induced dyskinesias. The total score is calculated as the sum of all scores assigned in the dyskinesia items: 32, 33, 34 and 35; the clinical fluctuations items (calculated as the sum of all scores assigned in items 36, 38 and 39). Items 32, 33, 34 and 35 are recorded according to historical information and item 33 is also modified by office examination. […]
The total score of the subscale III of the UPDRS is employed to examine parkinsonian symptoms. Motor functionality is assessed as the total motor score calculated as the sum of all scores assigned in items 18, 19, 20, 21, 22, 23, 24, 25, 26, 27, 28, 29, 30 and 31. […]

CC(C)(C)N1CCC(c2ccccc2)(c2ccccc2)CC1 [Budipine, 1-Tert-butyl-4,4-diphenylpiperidine]
akinesia, rigidity, and tremor [1]: significantly reduces akinesia, rigidity, and tremor
time to optimal effects after starting treatment [1]: 4-6 weeks

CN(C)CCCC1(c2ccc(F)cc2)OCc2cc(C#N)ccc21 (stereo not shown) [citalopram]
motor symptoms [2]: worsened their motor symptoms

O=c1n(CCCN2CCN(c3cccc(Cl)c3)CC2)nc2ccccn12 [trazodone]
tremors [3]: significantly reduced tremors

O=C1CC2(CCCC2)CC(=O)N1CCCCN1CCN(c2ncccn2)CC1 [buspirone]
effect on dyskinesia [4]: no different than placebo
treatment of Parkinson's disease [5]: ineffective

NC12CC3CC(CC(C3)C1)C2 [amantadine]
neuropsychologic and psychiatric assessments ([6]; after 6 and 12 months of therapy): No changes
dyskinesias ([6]; eight HD patients, oral amantadine 100 mg tid, unblinded, 1-year period, p<0.01): significant reduction of dyskinesias
UPDRS III scores (motor performance) [7]: improvement in motor performance
UPDRS IV scores (severity and characteristics of L-Dopa induced dyskinesias, motor fluctuations) [7]: improvement in motor fluctuations
